Where two headings read alike, the source gives them in different places.
Experiments:
[1] = MTHFR677 tt, retested 6 months later
Description: The HbA1C test is a common blood test used to diagnose type 1 and type 2 diabetes and then to gauge how well the subject is managing diabetes or the subjects risk of becoming diabetic. The A1C test result reflects the subjects average blood sugar level for the past two to three months. Specifically, the A1C test measures what percentage of the subject's hemoglobin is coated with sugar (glycated). […] According to the American Diabetes Association guidelines a HbA1C of between 4 and 5.6% falls within normal parameters, HbA1C between 5.7 and 6.4% are considered slightly elevated and indicate a prediabetic state as where HbA1C of greater than 6.5% is considered diabetic.
(§1) The test subject was given a fasting insulin test.

[2] = MTHFR677 tt, retested 6 months later; remark: listed apart in the source
Description: as §1

In the case of `CN1c2c([nH]c(N)nc2=O)NC[C@@H]1CNc1ccc(C(=O)N[C@@H](CCC(=O)O)C(=O)O)cc1` [L-methylfolate], the HbA1C ([1]; Example 1: person, 3 mgs L-methylfolate with 2 mgs methyl B12 once daily, before treatment 4.9%) is reported as 4.9%, the HbA1C ([1]; Example 2: person, 15 mgs L-methylfolate with 2 mgs methyl B12 once daily, before treatment 5.3%) is reported as 5.3% and the fasting insulin level ([2]; Example 1: person, 3 mgs L-methylfolate with 2 mgs methyl B12 once daily, before treatment 40 μU/ml) is reported as 9 μU/ml. The fasting insulin level ([2]; Example 2: person, 15 mgs L-methylfolate with 2 mgs methyl B12 once daily, before treatment 100 μU/ml) was 11 μU/ml.

Source: patent publication US20150133397A1, “METHOD OF REDUCING FASTING INSULIN LEVELS IN MTHFR GENE DEFICIENT SUBJECTS WITH NORMAL TO SLIGHTLY ELEVATED HEMOGLOBIN A1C” (priority 2013, published 2015)
